Experimental data reported in US20080207527A1, “Bicyclic Compounds Which Inhibit Beta-Secretase Activity and Methods of Use Thereof” (CoMentis, Inc., priority 2004, published 2008).
pIC50, pKi: −log10 of the molar value.

Experiments:
memapsin 2 = memapsin 2 (Homo sapiens, UniProt P56817); assay: Inhibition of memapsin 2 beta-secretase activity toward fluorogenic substrate FS-2; type: biochemical; settings: pH 4, 37° C., 20 minutes pre-incubation, read-out: M2 Ki
In short: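 Enzyme pre-incubated with compound 20 min at pH 4, 37 °C, then fluorogenic substrate FS-2 added. Inhibition derived from rate of fluorescence increase from peptide hydrolysis.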

Cathepsin D = Cathepsin D (Homo sapiens, UniProt P07339); assay: Inhibition of cathepsin D activity (substrate peptide hydrolysis, MALDI-TOF); type: biochemical; settings: pH 4.1, 37 degrees C., read-out: Cath D Ki
Cathepsin D, sequence (P07339 65-412, species assumed): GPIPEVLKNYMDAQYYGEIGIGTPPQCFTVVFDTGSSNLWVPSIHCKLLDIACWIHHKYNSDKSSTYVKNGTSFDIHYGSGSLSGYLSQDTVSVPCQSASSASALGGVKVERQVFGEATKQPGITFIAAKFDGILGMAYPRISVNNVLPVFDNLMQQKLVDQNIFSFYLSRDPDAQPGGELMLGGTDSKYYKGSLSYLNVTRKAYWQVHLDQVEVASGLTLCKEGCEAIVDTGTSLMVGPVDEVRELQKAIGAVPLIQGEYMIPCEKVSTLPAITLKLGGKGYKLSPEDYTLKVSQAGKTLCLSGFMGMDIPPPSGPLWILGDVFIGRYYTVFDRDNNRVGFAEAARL

memapsin 1 = biological target: T1, memapsin 1 (Homo sapiens, UniProt Q9Y5Z0); assay: Inhibition of memapsin 1 beta-secretase activity (substrate peptide hydrolysis, MALDI-TOF); type: biochemical; settings: pH 4.1, 37 degrees C., read-out: M1 Ki
T1 sequence (Q9Y5Z0 63-518): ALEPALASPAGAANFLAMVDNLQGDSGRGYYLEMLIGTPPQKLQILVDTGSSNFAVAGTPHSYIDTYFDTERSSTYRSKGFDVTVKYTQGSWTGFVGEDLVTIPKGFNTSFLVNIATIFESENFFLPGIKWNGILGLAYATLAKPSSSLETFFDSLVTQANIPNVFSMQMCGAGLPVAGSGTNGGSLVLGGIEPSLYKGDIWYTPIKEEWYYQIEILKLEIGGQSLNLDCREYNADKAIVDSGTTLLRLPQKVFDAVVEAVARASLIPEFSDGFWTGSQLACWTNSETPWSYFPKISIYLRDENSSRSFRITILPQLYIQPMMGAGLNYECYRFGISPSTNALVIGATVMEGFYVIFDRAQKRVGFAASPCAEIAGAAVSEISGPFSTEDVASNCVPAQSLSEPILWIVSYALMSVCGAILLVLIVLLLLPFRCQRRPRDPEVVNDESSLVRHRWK

Aβ production = assay: Cellular Aβ IC50 determination (Aβ40 sandwich ELISA); type: cell-based; settings: Cricetulus griseus, Chinese hamster ovary cells over-expressing human APP695 with London and Swedish mutations, 24 h
In short: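 CHO cells over-expressing human APP695 (London and Swedish mutations) were treated 48 h after seeding with serially diluted compound, top final concentration near 4 μM (0.4% DMSO), for 24 h at 37 °C, 5% CO2. Aβ40 in medium was measured by sandwich ELISA; values relative to control were fit to a 4-parameter IC50 model.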

memapsin 2, sequence (P56817 46-501): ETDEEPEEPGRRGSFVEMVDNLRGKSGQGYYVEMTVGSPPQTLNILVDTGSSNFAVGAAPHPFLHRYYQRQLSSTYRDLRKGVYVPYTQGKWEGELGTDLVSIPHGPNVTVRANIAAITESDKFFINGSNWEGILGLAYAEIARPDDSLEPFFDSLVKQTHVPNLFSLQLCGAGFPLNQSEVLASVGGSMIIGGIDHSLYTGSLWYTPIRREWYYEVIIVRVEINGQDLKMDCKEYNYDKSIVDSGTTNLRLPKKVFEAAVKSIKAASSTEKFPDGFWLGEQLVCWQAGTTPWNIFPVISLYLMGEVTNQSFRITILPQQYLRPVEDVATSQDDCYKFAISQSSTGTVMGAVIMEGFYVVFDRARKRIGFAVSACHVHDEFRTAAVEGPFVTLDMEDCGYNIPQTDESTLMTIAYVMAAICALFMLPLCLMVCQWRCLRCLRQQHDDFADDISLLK

## Cc1csc(CNC(=O)c2cccc(C(=O)N[C@@H](CC(C)C)[C@@H](O)C[C@@H](C)C(=O)N[C@H](C(=O)NCC(C)C)C(C)C)c2)n1 [N1-(5-hydroxy-8-(1-(isobutylamino)-3-methyl-1-oxobutan-2-ylamino)-2,7-dimethyl-8-oxooctan-4-yl)-N3-((4-methylthiazol-2-yl)methyl)isophthalamide]
Memapsin 2
  pKi: > 6.39
Cathepsin D
  pKi: 5.70 to 6.39
Memapsin 1
  pKi: 5.30 to 5.70
Aβ production
  pIC50: < 4.70

## Cc1ccc(CNC(=O)c2cc(C(=O)NC(CC(C)C)C(O)CC(C)C(=O)NC(C(=O)NCC(C)C)C(C)C)cc(N(C)S(C)(=O)=O)c2)o1 (stereo not shown) [N1-(5-hydroxy-8-(1-(isobutylamino)-3-methyl-1-oxobutan-2-ylamino)-2,7-dimethyl-8-oxooctan-4-yl)-N3-((5-methylfuran-2-yl)methyl)-5-(N-methylmethylsulfonamido)isophthalamide]
Memapsin 2
  pKi: > 6.39
Cathepsin D
  pKi: 5.70 to 6.39
Memapsin 1
  pKi: 5.70 to 6.39
Aβ production
  pIC50: > 5.30

## CC(C)CNC(=O)C(NC(=O)C(C)CC(O)C(CC(C)C)NC(=O)c1cc(C(=O)N(C)C(C)c2ccccc2)cc(N(C)S(C)(=O)=O)c1)C(C)C (stereo not shown) [N1-(5-hydroxy-8-(1-(isobutylamino)-3-methyl-1-oxobutan-2-ylamino)-2,7-dimethyl-8-oxooctan-4-yl)-N3-methyl-5-(N-methylmethylsulfonamido)-N3-(1-phenylethyl)isophthalamide]
Memapsin 2
  pKi: 5.70 to 6.39
Cathepsin D
  pKi: > 6.39
Memapsin 1
  pKi: > 6.39
Aβ production
  pIC50: < 4.70

## CC(C)CNC(=O)C(NC(=O)C(C)CC(O)C(CC(C)C)NC(=O)c1cc(C(=O)N(C)Cc2ccccn2)cc(N(C)S(C)(=O)=O)c1)C(C)C (stereo not shown) [N1-(5-hydroxy-8-(1-(isobutylamino)-3-methyl-1-oxobutan-2-ylamino)-2,7-dimethyl-8-oxooctan-4-yl)-N3-methyl-5-(N-methylmethylsulfonamido)-N3-(pyridin-2-ylmethyl)isophthalamide]
Memapsin 2
  pKi: > 6.39
Cathepsin D
  pKi: > 6.39
Memapsin 1
  pKi: 5.70 to 6.39
Aβ production
  pIC50: < 4.70

## CC(C)CNC(=O)C(NC(=O)C(C)CC(O)C(CC(C)C)NC(=O)c1cccc(C(=O)N(C)C(C)c2ccccc2)c1)C(C)C (stereo not shown) [N1-(5-hydroxy-8-(1-(isobutylamino)-3-methyl-1-oxobutan-2-ylamino)-2,7-dimethyl-8-oxooctan-4-yl)-N3-methyl-N3-(1-phenylethyl)isophthalamide]
Memapsin 2
  pKi: > 6.39
Cathepsin D
  pKi: > 6.39
Memapsin 1
  pKi: > 6.39
Aβ production
  pIC50: < 4.70

## Cc1csc(CN(C)C(=O)c2cccc(C(=O)NC(CC(C)C)C(O)CC(C)C(=O)NC(C(=O)NCC(C)C)C(C)C)c2)n1 (stereo not shown) [N1-(5-hydroxy-8-(1-(isobutylamino)-3-methyl-1-oxobutan-2-ylamino)-2,7-dimethyl-8-oxooctan-4-yl)-N3-methyl-N3-((4-methylthiazol-2-yl)methyl)isophthalamide]
Memapsin 2
  pKi: > 6.39
Cathepsin D
  pKi: > 6.39
Memapsin 1
  pKi: 5.70 to 6.39
Aβ production
  pIC50: > 5.30

## CC(C)CNC(=O)C(NC(=O)C(C)CC(O)C(CC(C)C)NC(=O)c1cccc(C(=O)N(C)Cc2cnccn2)c1)C(C)C (stereo not shown) [N1-(5-hydroxy-8-(1-(isobutylamino)-3-methyl-1-oxobutan-2-ylamino)-2,7-dimethyl-8-oxooctan-4-yl)-N3-methyl-N3-(pyrazin-2-ylmethyl)isophthalamide]
Memapsin 2
  pKi: 5.70 to 6.39
Cathepsin D
  pKi: > 6.39
Memapsin 1
  pKi: 5.70 to 6.39
Aβ production
  pIC50: < 4.70

## CC(C)CNC(=O)C(NC(=O)C(C)CC(O)C(CC(C)C)NC(=O)c1cccc(C(=O)N(C)Cc2ccccn2)c1)C(C)C (stereo not shown) [N1-(5-hydroxy-8-(1-(isobutylamino)-3-methyl-1-oxobutan-2-ylamino)-2,7-dimethyl-8-oxooctan-4-yl)-N3-methyl-N3-(pyridin-2-ylmethyl)isophthalamide]
Memapsin 2
  pKi: 5.70 to 6.39
Cathepsin D
  pKi: > 6.39
Memapsin 1
  pKi: > 6.39
Aβ production
  pIC50: < 4.70

## CC(C)CNC(=O)C(NC(=O)C(C)CC(O)C(CC(C)C)NC(=O)c1cccc(C(=O)N(C)Cc2cccnc2)c1)C(C)C (stereo not shown) [N1-(5-hydroxy-8-(1-(isobutylamino)-3-methyl-1-oxobutan-2-ylamino)-2,7-dimethyl-8-oxooctan-4-yl)-N3-methyl-N3-(pyridin-3-ylmethyl)isophthalamide]
Memapsin 2
  pKi: > 6.39
Cathepsin D
  pKi: > 6.39
Memapsin 1
  pKi: > 6.39
Aβ production
  pIC50: < 4.70

## CCC(NC(=O)C(C)CC(O)C(CC(C)C)NC(=O)c1cccc(C(=O)N(C)Cc2nc(C)cs2)c1)C(=O)NC(C)C (stereo not shown) [N1-(5-hydroxy-8-(1-(isopropylamino)-1-oxobutan-2-ylamino)-2,7-dimethyl-8-oxooctan-4-yl)-N3-methyl-N3-((4-methylthiazol-2-yl)methyl)isophthalamide]
Memapsin 2
  pKi: > 6.39
Cathepsin D
  pKi: 5.70 to 6.39
Memapsin 1
  pKi: < 5.30
Aβ production
  pIC50: > 5.30

## COc1cccc(CNC(=O)C(C)CC(O)C(CC(C)C)NC(=O)c2cc(C(=O)NC(C)c3ccccc3)cc(N(C)S(C)(=O)=O)c2)c1 (stereo not shown) [N1-(5-hydroxy-8-(3-methoxybenzylamino)-2,7-dimethyl-8-oxooctan-4-yl)-5-(N-methylmethylsulfonamido)-N3-(1-phenylethyl)isophthalamide]
Memapsin 2
  pKi: < 5.30
Cathepsin D
  pKi: < 5.30
Memapsin 1
  pKi: < 5.30
Aβ production
  pIC50: 4.70 to 5.00

## CCN1CCCC1CNC(=O)C(NC(=O)C(C)CC(O)C(CC(C)C)NC(=O)c1cc(C(=O)NC(C)c2ccccc2)cc(N(C)S(C)(=O)=O)c1)C(C)C (stereo not shown) [N1-(8-(1-((1-ethylpyrrolidin-2-yl)methylamino)-3-methyl-1-oxobutan-2-ylamino)-5-hydroxy-2,7-dimethyl-8-oxooctan-4-yl)-5-(N-methylmethylsulfonamido)-N3-(1-phenylethyl)isophthalamide]
Memapsin 2
  pKi: > 6.39
Cathepsin D
  pKi: > 6.39
Memapsin 1
  pKi: > 6.39
Aβ production
  pIC50: > 5.30

## CC(C)CC(NC(=O)c1cc(C(=O)NC(C)c2ccccc2)cc(N(C)S(C)(=O)=O)c1)C(O)CC(C)C(=O)NCc1ccccc1 (stereo not shown) [N1-(8-(benzylamino)-5-hydroxy-2,7-dimethyl-8-oxooctan-4-yl)-5-(N-methylmethylsulfonamido)-N3-(1-phenylethyl)isophthalamide]
Memapsin 2
  pKi: 5.30 to 5.70
Cathepsin D
  pKi: < 5.30
Memapsin 1
  pKi: 5.30 to 5.70
Aβ production
  pIC50: < 4.70

## CCc1csc(CN(C)C(=O)c2cccc(C(=O)NC(CC(C)C)C(O)CC(C)C(=O)NC(C(=O)NCC(C)C)C(C)C)c2)n1 (stereo not shown) [N1-((4-ethylthiazol-2-yl)methyl)-N3-(5-hydroxy-8-(1-(isobutylamino)-3-methyl-1-oxobutan-2-ylamino)-2,7-dimethyl-8-oxooctan-4-yl)-N1-methylisophthalamide]
Memapsin 2
  pKi: > 6.39
Cathepsin D
  pKi: < 5.30
Memapsin 1
  pKi: > 6.39
Aβ production
  pIC50: < 4.70

## CC(C)CNC(=O)C(NC(=O)C(C)CC(O)C(CC(C)C)NC(=O)c1cccc(C(=O)N(C)Cc2ccco2)c1)C(C)C (stereo not shown) [N1-(furan-2-ylmethyl)-N3-(5-hydroxy-8-(1-(isobutylamino)-3-methyl-1-oxobutan-2-ylamino)-2,7-dimethyl-8-oxooctan-4-yl)-N1-methylisophthalamide]
Memapsin 2
  pKi: > 6.39
Cathepsin D
  pKi: > 6.39
Memapsin 1
  pKi: 5.70 to 6.39
Aβ production
  pIC50: < 4.70

## CC(C)CNC(=O)C(NC(=O)C(C)CC(O)C(CC(C)C)NC(=O)c1cc(C(=O)N(C)Cc2ccccc2)cc(N(C)S(C)(=O)=O)c1)C(C)C (stereo not shown) [N1-benzyl-N3-(5-hydroxy-8-(1-(isobutylamino)-3-methyl-1-oxobutan-2-ylamino)-2,7-dimethyl-8-oxooctan-4-yl)-N1-methyl-5-(N-methylmethylsulfonamido)isophthalamide]
Memapsin 2
  pKi: > 6.39
Cathepsin D
  pKi: > 6.39
Memapsin 1
  pKi: > 6.39
Aβ production
  pIC50: 4.70 to 5.00

## CCN(Cc1ccncc1)C(=O)c1cc(C)cc(C(=O)NC(CC(C)C)C(O)CC(C)C(=O)NC(C(=O)NCC(C)C)C(C)C)c1 (stereo not shown) [N1-ethyl-N3-(5-hydroxy-8-(1-(isobutylamino)-3-methyl-1-oxobutan-2-ylamino)-2,7-dimethyl-8-oxooctan-4-yl)-5-methyl-N1-(pyridin-4-ylmethyl)isophthalamide]
Memapsin 2
  pKi: 5.70 to 6.39
Cathepsin D
  pKi: > 6.39
Memapsin 1
  pKi: > 6.39
Aβ production
  pIC50: < 4.70

## CC(C)CNC(=O)C(NC(=O)C(C)CC(O)C(CC(C)C)NC(=O)c1cncc(C(=O)N(C)Cc2ccccn2)c1)C(C)C (stereo not shown) [N3-(5-hydroxy-8-(1-(isobutylamino)-3-methyl-1-oxobutan-2-ylamino)-2,7-dimethyl-8-oxooctan-4-yl)-N5-methyl-N5-(pyridin-2-ylmethyl)pyridine-3,5-dicarboxamide]
Memapsin 2
  pKi: > 6.39
Cathepsin D
  pKi: > 6.39
Memapsin 1
  pKi: > 6.39
Aβ production
  pIC50: < 4.70

## CC(C)CC(NC(=O)c1cc(C(=O)NC(C)c2ccccc2)cc(N(C)C(=O)OC2CCOC2)c1)C(O)CC(C)C(=O)NC(C(=O)NC(C)C)C(C)C (stereo not shown) [tetrahydrofuran-3-yl 3-(5-hydroxy-8-(1-(isopropylamino)-3-methyl-1-oxobutan-2-ylamino)-2,7-dimethyl-8-oxooctan-4-ylcarbamoyl)-5-(1-phenylethylcarbamoyl)phenyl(methyl)carbamate]
Memapsin 2
  pKi: 5.70 to 6.39
Cathepsin D
  pKi: > 6.39
Memapsin 1
  pKi: > 6.39
Aβ production
  pIC50: < 4.70
